Measured values reported in patent US20110195979A1, “COMPOUNDS FOR THE TREATMENT AND PREVENTION OF INFLUENZA” (priority 2010, published 2011).
pEC50, pIC50: −log10 of the molar value. Read-outs that look alike come from different tables or passages of the source.

Experiments:
[1] = tested on: Influenza H1N1 virus; experiment: Viral cytopathic effect (CPE) assay; assay type: cell-based, Influenza A (H1N1)
Protocol: Cells and viruses. Madin-Darby canine kidney cell (MDCK) was purchased from American type culture collection (ATCC) and was maintained in minimal essential medium (MEM) containing 10% fetal bovine serum and antibiotics. Influenza A/Weiss/43 (H1N1), A/PR/8/34 (H1N1), and A/Hongkong/8/68 (H3N2) were purchased from ATCC and propagated in 10-day-old embryonated chicken eggs at 37° C. Virus was harvested 48 h after inoculation as pooled allantoic fluid. After a brief centrifugation (3,000 rpm at room temperature for 20 min) and virus titer measurement by a hemagglutination test, virus was aliquoted and stored at a −80° C. freezer.
Viral cytopathic effect (CPE) assay: To measure anti-influenza activity of compounds, MDCK cells were seeded into 96-well plates at a density of 5,000 cells per well. Next day, compounds were serially half-log diluted with Gibco SFM containing trypsin. Compounds and 50 pfu of virus were added into corresponding wells to make m.o.i at 0.01 and a final trypsin concentration of 2.5 μg/ml. The testing plates also contained medium control, cell control, virus control, and compound toxicity control. After a 3-day treatment, cell viability was measured with a MTT (3-(4,5-dimethylthiazol-2-yl)-2,5-diphenyltetrazolium bromide) method. Briefly, 20 μl of MTT diluted in culture medium was added into each wells and incubated at 37° C. for 4 hours. Reduced MTT (formazan) was extracted with acidic isopropanol and absorbance at wavelengths of 570 nm and 630 nm (OD570 and OD630) was read on a microtiter plate reader. After subtraction of background OD values, dose response curves of half-log concentration vs. percent protection were generated, on which half maximal effective concentration (EC50) and half maximal toxic concentration (CC50) were calculated.

[2] = tested on: MDCK cells; experiment: Cytotoxicity to MDCK cells (compound toxicity control, MTT); conditions: for pIC50: read-out: Cytotoxicy IC50, half maximal cytotoxicity concentration to MDCK cells, MTT; for IC50 at 3 day: dog
[3] = tested on: MDCK cells; conditions: dog, 3 day
[4] = tested on: H3 viruses; conditions: cited from earlier work
[5] = tested on: H1 and H2 viruses; conditions: cited from earlier work
[6] = tested on: MDCK cells; experiment: in vitro; conditions: dog, Cytotoxicy IC50
[7] = tested on: H3 influenza viruses; conditions: cited from earlier work
[8] = H1N1; MDCK cells, m.o.i 0.01, 3-day treatment, MTT OD; mean of triplicate experiments; read-out: CPE_EC50
[9] = Influenza A virus, H1N1, MDCK, 72 h, read-out: CPE_EC50

CC1(C)C[C@@H](O)C[C@@](C)(CNc2cc(Cl)cc(C#N)c2)C1 (relative stereo) [Example IIa-23, 3-Chloro-5-[((cis-1,5)-5-hydroxy-1,3,3-trimethyl-cyclohexylmethyl)-amino]-benzonitrile]
pEC50 [1, 8]: 7.47 | pIC50 [2]: 4.86

CC1(C)CC(O)CC(CNc2cc(F)cc(C(F)(F)F)c2)C1 (single isomer, unassigned) [Example IIi-1/2 Isomer 1, (cis-1,5)-5-[(3-Fluoro-5-trifluoromethyl-phenylamino)-methyl]-3,3-dimethyl-cyclohexanol]
pEC50 [1, 9]: > 6.51 | pIC50 [3]: 5.09

CC1(C)CC(O)CC(CNc2cc(F)cc(C(F)(F)F)c2)C1 (single isomer, unassigned) [Example IIi-1/2 Isomer 2, (trans-1,5)-5-[(3-fluoro-5-trifluoromethyl-phenylamino)-methyl]-3,3-dimethyl-cyclohexanol]
pEC50 ([1]; read-out: CPE_EC50; H1N1; MDCK cells, m.o.i 0.01, 3-day treatment, MTT OD; mean of triplicate experiments): > 6.51 | pIC50 [3]: 4.77

C[C@@H]1CCC[C@@H]2C[C@@H](NC(=O)c3cc(Cl)c(N)cc3O)CCN21 [BMY 27709]
activity against H3 viruses [4]: not H3 viruses | pEC50 ([5]; read-out: anti-flu activity EC50): 5.10 to 5.22

CC1(C)CC(O)CC(C)(CNc2ccc(C#N)c(Cl)c2)C1 (stereo not drawn) [Example IIa-29, 2-Chloro-4-[((cis-1,5)-5-hydroxy-1,3,3-trimethyl-cyclohexylmethyl)-amino]-benzonitrile]
pEC50 [1, 9]: 6.74 | IC50 at 3 day [2]: 8.22 µM

CC1(C)CC(O)CC(C)(CNc2ccc(Cl)c(C#N)c2)C1 (stereo not drawn) [Example IIa-30, 2-Chloro-5-[((cis-1,5)-5-hydroxy-1,3,3-trimethyl-cyclohexylmethyl)-amino]-benzonitrile]
pEC50 [1, 9]: 6.85 | IC50 at 3 day [2]: 7.99 µM

CC1(C)CC(O)CC(C)(CNc2ccc(C#N)c(C(F)(F)F)c2)C1 (stereo not drawn) [Example IIa-33, 4-[((cis-1,5)-5-Hydroxy-1,3,3-trimethyl-cyclohexylmethyl)-amino]-2-trifluoromethyl-benzonitrile]
pEC50 [1, 9]: 7.31 | IC50 at 3 day [2]: 8.35 µM

CC1(C)CC(O)CC(C)(C(=O)Nc2cc(F)cc(F)c2)C1 (stereo not drawn) [Example IVa-11, (cis-1,5)-5-Hydroxy-1,3,3-trimethyl-cyclohexanecarboxylic acid(3,5-difluoro-phenyl)-amide]
pEC50 [1, 9]: 6.49 | IC50 at 3 day [6]: > 100 µM

CC1(C)CC(O)CC(C)(C(=O)Nc2cc(F)cc(Cl)c2)C1 (stereo not drawn) [Example IVa-12, (cis-1,5)-5-Hydroxy-1,3,3-trimethyl-cyclohexanecarboxylic acid(3-chloro-5-fluoro-phenyl)amide]
pEC50 [1, 9]: 7.26 | IC50 at 3 day [6]: 56.4 µM

CC1(C)CC(O)CC(C)(C(=O)Nc2cc(F)cc(C(F)(F)F)c2)C1 (stereo not drawn) [Example IVa-13, (cis-1,5)-5-Hydroxy-1,3,3-trimethyl-cyclohexanecarboxylic acid(3-fluoro-5-trifluoromethyl-phenyl)-amide]
pEC50 [1, 9]: 7.27 | IC50 at 3 day [6]: 52.8 µM

CC1(C)CC(O)CC(C)(C(=O)Nc2cc(Cl)cc(C(F)(F)F)c2)C1 (stereo not drawn) [Example IVa-14, (cis-1,5)-5-Hydroxy-1,3,3-trimethyl-cyclohexanecarboxylic acid(3-chloro-5-trifluoromethyl-phenyl)-amide]
pEC50 [1, 9]: 7.72 | IC50 at 3 day [6]: 22.2 µM

CC1(C)CC(O)CC(C)(C(=O)Nc2cc(Br)cc(C(F)(F)F)c2)C1 (stereo not drawn) [Example IVa-15, (cis-1,5)-5-Hydroxy-1,3,3-trimethyl-cyclohexanecarboxylic acid(3-bromo-5-trifluoromethyl-phenyl)-amide]
pEC50 [1, 9]: 7.26 | IC50 at 3 day [6]: 7.31 µM

COc1cc(NC(=O)C2(C)CC(O)CC(C)(C)C2)cc(C(F)(F)F)c1 (stereo not drawn) [Example IVa-16, (cis-1,5)-5-Hydroxy-1,3,3-trimethyl-cyclohexanecarboxylic acid(3-methoxy-5-trifluoromethyl-phenyl)-amide]
pEC50 [1, 9]: 7.22 | IC50 at 3 day [6]: 74.8 µM

CC1(C)CC(O)CC(C)(C(=O)Nc2cc(Cl)cc(Cl)c2)C1 (stereo not drawn) [Example IVa-17, (cis-1,5)-5-Hydroxy-1,3,3-trimethyl-cyclohexanecarboxylic acid(3,5-dichloro-phenyl)-amide]
pEC50 [1, 9]: 7.31 | IC50 at 3 day [6]: 23.2 µM

CC1(C)CC(O)CC(C)(C(=O)Nc2ccc(Cl)c(F)c2)C1 (stereo not drawn) [Example IVa-19, (cis-1,5)-5-Hydroxy-1,3,3-trimethyl-cyclohexanecarboxylic acid(4-chloro-3-fluoro-phenyl)amide]
pEC50 [1, 9]: 5.74 | IC50 at 3 day [6]: 30.9 µM

CC1(C)CC(O)CC(C)(C(=O)Nc2ccc(Cl)c(Cl)c2)C1 (stereo not drawn) [Example IVa-20, (cis-1,5)-5-Hydroxy-1,3,3-trimethyl-cyclohexanecarboxylic acid(3,4-dichloro-phenyl)-amide]
pEC50 [1, 9]: 6.20 | IC50 at 3 day [6]: 9.63 µM

CC1(C)CC(O)CC(C)(C(=O)Nc2ccc(F)c(C(F)(F)F)c2)C1 (stereo not drawn) [Example IVa-21, (cis-1,5)-5-Hydroxy-1,3,3-trimethyl-cyclohexanecarboxylic acid(4-fluoro-3-trifluoromethyl-phenyl)-amide]
pEC50 [1, 9]: 6.34 | IC50 at 3 day [6]: 29.6 µM

CC(=O)NC1CC(C)(C)CC(C)(C(=O)Nc2cccc(Cl)c2)C1 (stereo not drawn) [Example IVb-2, (cis-1,5)-5-Acetylamino-1,3,3-trimethyl-cyclohexanecarboxylic acid(3-chloro-phenyl)-amide]
pEC50 [1, 9]: 5.34 | IC50 at 3 day [6]: > 100 µM

CC(=O)N(C(C)=O)C1CC(C)(C)CC(C)(C(=O)Nc2cccc(Cl)c2)C1 (stereo not drawn) [Example IVb-3, (cis-1,5)-Diacetylamino-1,3,3-trimethyl-cyclohexanecarboxylic acid(3-chloro-phenyl)-amide]
pEC50 [1, 9]: 5.50 | IC50 at 3 day [6]: 22.9 µM

CC1(C)CC(NS(C)(=O)=O)CC(C)(C(=O)Nc2cccc(Cl)c2)C1 (stereo not drawn) [Example IVb-4, (cis-1,5)-5-Methanesulfonylamino-1,3,3-trimethyl-cyclohexanecarboxylic acid(3-chloro-phenyl)-amide]
pEC50 [1, 9]: 5.56 | IC50 at 3 day [6]: > 100 µM

CC(C)(C)c1cc(O)ccc1O [TBHQ, tert-butyl hydroquinone]
inhibition of fusion [7]: inhibits fusion

C[C@H]1CC[C@H]2C(C)(C)[C@@H](O)CC[C@]23Oc2c(c(O)cc4c2CNC4=O)C[C@]13C [stachyflin]
activity against H3 viruses [4]: not H3 viruses | block of influenza virus replication [5]: blocked

(cis-1,5)-5-Hydroxy-1,3,3-trimethyl-cyclohexanecarboxylic acid(4-chloro-3-trifluoromethyl-phenyl)-amide [Example IVa-22]
pEC50 [1, 8]: 6.78 | pIC50 [2]: 5.13
